From patent publication US10426818B2, “Method and pharmaceutical composition for use in the treatment of diabetes” (INSERM (INSITUT NATIONAL DE LA SANTE ET DE LA RECHERCHE …, priority 2015, dated 2019)
Like-named read-outs stand apart in the source and are kept apart here.

Test system: overweighed healthy volunteers
Conditions: for ΔGIR (difference in Glucose Infusion Rate): single 2 hours continuous intravenous infusion, 8 volunteers
Method: This trial is a Phase 1, exploratory, monocentric, placebo-controlled, double blinded, crossover study.
Two groups of 8 male, overweighed (BMI 25-30 kg/m^2) healthy volunteers were included in this study.
The first 8 volunteers were included in the low dose group.
The next 8 volunteers were included in the high dose group.
Euglycemic Hyperinsulinemic Clamp Technique • Insulin (Actrapid®, NovoNordisk, Copenhagen, Denmark) was perfused for 4 hours at a constant supra-physiological rate (1 mU·Kg-1·min-1) resulting in the complete inhibition of hepatic glucose production. • Blood glucose level was measured every 5 min and maintained for 4 hours at a constant physiological value (5 mmol/l) adapting the rate of infusion of a 20% glucose solution.
The primary endpoint (deltaGIR) was the difference between the GIR measured during the steady state ending the “investigational product” perfusion phase (GIRperfusion) and the GIR measured during the steady state ending the “basal” phase (GIRbasal). Delta GIR=GIRperfusion−GIRbasal

(pyr1)-Apelin-13
change in ΔGIR versus placebo (in words) (9 nmol/kg intravenous, p=0.06): non-significant increase | ΔGIR (difference in Glucose Infusion Rate) (9 nmol/kg, p=0.06 versus placebo): +2.21±0.54 mg/kg/min | insulin sensitivity versus placebo (in words) (30 nmol/kg intravenous, p=0.03): significant improvement | ΔGIR (difference in Glucose Infusion Rate) (30 nmol/kg, p=0.03 versus placebo): +1.72±0.47 mg/kg/min
